Active and inactive are the calls of the source. The rule behind the calls is not given here.
Key:
[1] = molecular target: T1, Proteinase-activated receptor 1 (Homo sapiens, UniProt P25116); experiment: Displacement of [3H]haTRAP from PAR1
T1 sequence (P25116 whole entry): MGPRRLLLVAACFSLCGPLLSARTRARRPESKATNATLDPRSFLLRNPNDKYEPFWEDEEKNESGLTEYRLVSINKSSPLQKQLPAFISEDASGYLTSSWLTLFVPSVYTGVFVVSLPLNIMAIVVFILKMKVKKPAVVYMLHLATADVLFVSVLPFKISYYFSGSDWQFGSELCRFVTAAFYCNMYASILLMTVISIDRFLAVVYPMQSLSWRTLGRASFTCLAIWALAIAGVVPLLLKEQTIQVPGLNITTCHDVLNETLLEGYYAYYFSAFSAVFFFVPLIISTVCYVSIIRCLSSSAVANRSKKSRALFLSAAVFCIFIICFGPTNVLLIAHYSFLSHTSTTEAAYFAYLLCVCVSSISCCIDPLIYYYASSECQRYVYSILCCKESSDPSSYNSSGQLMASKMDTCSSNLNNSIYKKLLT

[2] = AUC in cynomolgus monkey at 3 mg/kg, po; assay type: ADME, organism-based, Macaca fascicularis; design: dose 3 mg/kg, route oral; settings: plasma
[3] = test system: Cynomolgus monkey; experiment: Inhibition of platelet aggregation in cynomolgus monkey at 3 mg/kg, po upto 5 hrs; assay type: functional, organism-based; design: dose 3 mg/kg; settings: Macaca fascicularis
[4] = AUC (0 to 6 hrs) in rat; assay type: ADME, organism-based; design: time < 6 hr; concentration or dose not given beside the values; settings: plasma
[5] = test system: Cynomolgus monkey; experiment: Inhibition of platelet aggregation in cynomolgus monkey at 2 mg/kg, po after 24 hrs; assay type: functional, organism-based; design: dose 2 mg/kg; settings: Macaca fascicularis
[6] = AUC (0 to 24 hrs) in cynomolgus monkey at 1 mg/kg, po; assay type: ADME, organism-based, Macaca fascicularis; design: time < 24 hr, dose 1 mg/kg, route oral; settings: plasma
[7] = test system: Proteinase-activated receptor 1 (Homo sapiens); experiment: Dissociation half-life from PAR-1 receptor
[8] = test system: Cynomolgus monkey; experiment: Inhibition of platelet aggregation in cynomolgus monkey at 3 mg/kg, po; assay type: functional, organism-based; design: dose 3 mg/kg; settings: Macaca fascicularis
[9] = test system: Cynomolgus monkey; experiment: Inhibition of platelet aggregation in cynomolgus monkey after 24 hrs; assay type: functional, Macaca fascicularis

| Compound | IC50 [1] [nM] | other results |
| --- | --- | --- |
| O=C1OC[C@H]2[C@@H]1Cc1ccccc1[C@@H]2/C=C/c1ccc(-c2cccc(Cl)c2)cn1 | 14.5 | AUC [2]: 6300 ng·h/mL; Activity [3]: Active |
| O=C1OC[C@H]2[C@@H]1Cc1c(F)cc(F)cc1[C@@H]2/C=C/c1ccc(-c2cccc(Cl)c2)cn1 (racemic) | 46.5 | – |
| O=C1OC[C@H]2[C@@H]1Cc1c(Cl)cccc1[C@@H]2/C=C/c1ccc(-c2cccc(Cl)c2)cn1 (racemic) | 328 | – |
| O=C1OC[C@H]2[C@@H]1Cc1c(ccc(F)c1F)[C@@H]2/C=C/c1ccc(-c2cccc(F)c2)cn1 | 7 | – |
| O=C1OC[C@H]2[C@H](/C=C/c3ccccn3)c3ccccc3C[C@@H]12 | 12000 | – |
| O=C1OC[C@H]2[C@@H]1Cc1cccc(F)c1[C@@H]2/C=C/c1ccc(-c2cccc(Cl)c2)cn1 (racemic) | 330 | – |
| O=C1OC[C@H]2[C@@H]1Cc1cccc(F)c1[C@@H]2/C=C/c1ccc(-c2cccc(F)c2)cn1 (racemic) | 85.5 | – |
| COc1ccc2nc(/C=C/[C@H]3c4ccccc4C[C@@H]4C(=O)O[C@H](C)[C@@H]43)ccc2c1 | 90 | – |
| O=C1OC[C@H]2[C@@H]1Cc1c(F)cccc1[C@@H]2/C=C/c1ccc(-c2cccc(Cl)c2)cn1 | 29 | – |
| O=C1OC[C@H]2[C@@H]1Cc1c(ccc(F)c1F)[C@@H]2/C=C/c1ccc(-c2cccc(Cl)c2)cn1 | 15.5 | Activity [8]: inactive; AUC(0-t) at 6 h [4]: 264 ng·h/mL |
| COc1ccc2nc(/C=C/[C@H]3c4ccccc4C[C@@H]4C(=O)O[C@@H](C)[C@@H]43)ccc2c1 | 9170 | – |
| COc1ccc2nc(/C=C/[C@@H]3c4ccccc4C[C@H]4C(=O)OC(C)(C)[C@@H]34)ccc2c1 (racemic) | 225 | – |
| COc1ccc2nc(/C=C/[C@@H]3c4ccccc4C[C@H]4C(=O)O[C@@H](C)[C@@H]34)ccc2c1 | 3140 | – |
| COc1ccc2nc(/C=C/[C@@H]3c4ccccc4C[C@H]4C(=O)O[C@H](C)[C@@H]34)ccc2c1 | 580 | – |
| O=C1OC[C@H]2[C@@H]1Cc1c(Cl)cccc1[C@@H]2/C=C/c1ccc(-c2cccc(F)c2)cn1 (racemic) | 63.5 | – |
| O=C1OC[C@H]2[C@@H]1Cc1c(F)cccc1[C@@H]2/C=C/c1ccc(-c2cccc(F)c2)cn1 | 20.5 | AUC(0-t) at 6 h [4]: 4590 ng·h/mL |
| COc1ccc2nc(/C=C/[C@@H]3c4ccccc4C[C@H]4C(=O)OC[C@@H]34)ccc2c1 (racemic) | 12.5 | – |

More lines, main results first:

| IC50 [1] [nM] | Compound | other results |
| --- | --- | --- |
| 120 | O=C1OC[C@H]2[C@@H]1Cc1ccc(Cl)cc1[C@@H]2/C=C/c1ccc(-c2cccc(Cl)c2)cn1 (racemic) | – |
| 7.6 | O=C1OC[C@H]2[C@@H]1Cc1cc(F)ccc1[C@@H]2/C=C/c1ccc(-c2cccc(F)c2)cn1 | AUC(0-t) at 6 h [4]: 3960 ng·h/mL; Activity [5]: Active; AUC(0-t) at 24 h [6]: 6200 ng·h/mL; dissociation half-life [7]: 2.32 h |
| 14.5 | O=C1OC[C@H]2[C@@H]1Cc1ccc(Cl)cc1[C@@H]2/C=C/c1ccc(-c2cccc(F)c2)cn1 | – |
| 65 | O=C1OC[C@H]2[C@@H]1Cc1c(F)cccc1[C@@H]2/C=C/c1ccc(-c2cccc(C(F)(F)F)c2)cn1 (racemic) | – |
| 138 | O=C1OC[C@H]2[C@@H]1Cc1ccc(Cl)cc1[C@@H]2/C=C/c1ccc(-c2cccc(C(F)(F)F)c2)cn1 (racemic) | – |
| 10 | O=C1OC[C@H]2[C@@H]1Cc1ccc(F)cc1[C@@H]2/C=C/c1ccc(-c2cccc(F)c2)cn1 | AUC(0-t) at 6 h [4]: 5050 ng·h/mL |
| 10 | O=C1OC[C@H]2[C@@H]1Cc1ccc(F)cc1[C@@H]2/C=C/c1ccc(-c2cccc(Cl)c2)cn1 | AUC(0-t) at 6 h [4]: 6720 ng·h/mL |
| 7.5 | O=C1OC[C@H]2[C@@H]1Cc1ccccc1[C@@H]2/C=C/c1ccc(-c2cccc(F)c2)cn1 | AUC [2]: < 300 ng·h/mL |
| 21.5 | O=C1OC[C@H]2[C@@H]1Cc1c(F)cc(F)cc1[C@@H]2/C=C/c1ccc(-c2cccc(C(F)(F)F)c2)cn1 | – |
| 13 | O=C1OC[C@H]2[C@@H]1Cc1cc(F)ccc1[C@@H]2/C=C/c1ccc(-c2cccc(Cl)c2)cn1 | AUC(0-t) at 6 h [4]: 3700 ng·h/mL; Inhibition [9]: 60% |
| 31.5 | O=C1OC[C@H]2[C@@H]1Cc1ccc(F)cc1[C@@H]2/C=C/c1ccc(-c2cccc(C(F)(F)F)c2)cn1 | – |
| 10 | O=C1OC[C@H]2[C@@H]1Cc1ccccc1[C@@H]2/C=C/c1ccc(-c2cccc(C(F)(F)F)c2)cn1 | AUC [2]: < 300 ng·h/mL |
| 225 | O=C1OC[C@H]2[C@@H]1Cc1c(Cl)cccc1[C@@H]2/C=C/c1ccc(-c2cccc(C(F)(F)F)c2)cn1 (racemic) | – |
